Results: article PMC12661400, “Oral bioavailable ITRI-148 degrades androgen receptor variants and overcomes antiandrogen resistance in advanced prostate cancer” (Neoplasia (New York, N.Y.), 2025)
Values joined by “and” are separate entries in the source; they are usually repeats but may differ in a detail not shown here. Equal entries are not always repeated. Where two headings read alike, the source gives them in different places.

Columns and labels:
[1] = In vitro stability in plasma; assay type: in vitro ADME; details: for Remaining of intact drug (%): 1 μM, incubation up to 4 hours; for half-life at 1 μM: read-out: Plasma Stability t1/2
Experimental: The stability of ITRI-148 was assessed in plasma across four species: humans, dogs, rats, and mice. ITRI-148 added to pre-warmed plasma at 1 μM was maintained at the designated temperature, and aliquots were collected at 0, 0.5, 1, 2, and 4 hours after incubation. At each time point, 20 μL of the samples was taken to terminate the reaction, followed by LC-MS/MS analysis to determine the remaining compound concentration. Data from duplicated experiments was calculated and presented as mean ± SD.

AR = AR degradation by immunoblotting in CRPC cells; assay type: cell-based
Experimental: Cell lysis, Western blotting, and AR ubiquitination were performed as described in [17]. Primary antibodies: AR (Millipore 06-680), AR-V7 (RevMAb Biosciences 31-1109-00), PSA (ABclonal A4355), NKX3-1 (Cell Signaling Technology 92998), GAPDH (Cell Signaling Technology 2118) and β-Actin (Sigma-Aldrich A5441).
Fig. 1 ITRI-148 induces degradation of both AR and AR-V7 proteins in CRPC cells. […] (B) Expression of Flag-tagged AR-V7 in 293T cells following ITRI-148 treatment. Cells transiently expressing Flag-AR-V7 were pretreated with 50 μg/mL cycloheximide for 1 hour, then exposed to ITRI-148 at the indicated concentrations for 8 hours. AR-V7 expression was detected using an anti-Flag antibody. (C) Representative immunoblots showing AR protein levels in VCaP and CWR22Rv1 cells after 48 hours of ITRI-148 treatment. An N-terminal AR antibody was used to detect both full-length AR and LBD-truncated variants (AR-V(ΔLBD)) in CWR22Rv1 cells, while AR-V7 was detected using an AR-V7-specific antibody. DC₅₀ values were calculated from normalized band intensities, and Dₘₐₓ represents the maximal degradation achieved at 10 μM ITRI-148. (D) Immunofluorescence staining of AR after 24 or 48 hours of ITRI-148 treatment, detected using an N-terminal AR antibody. […] (F) Western blot analysis of ectopically expressed wild-type (WT) and mutant Myc-tagged AR in DU145 cells following 24 hours of treatment with 10 μM ITRI-148. Quantified AR levels are as indicated. TEXT PRINTED IN THE PICTURE: (C) ITRI-148: DC50 (μM) AR CWR22Rv1: 1.23 ± 1.86; DC50 (μM) AR VCaP: 0.05 ± 0.03; DC50 (μM) AR-V7 CWR22Rv1: 1.20 ± 0.92; DC50 (μM) AR-V7 VCaP: 0.02 ± 0.02; Dmax (%) AR CWR22Rv1: 65.02 ± 19.91; Dmax (%) AR VCaP: 80.49 ± 5.61; Dmax (%) AR-V7 CWR22Rv1: 72.10 ± 3.15; Dmax (%) AR-V7 VCaP: 91.36 ± 2.05

CWR22Rv1 cell = CWR22Rv1 cell viability after 3 days of 10 μM compound (linker screen); assay type: cell-based; details: 72 h, CWR22Rv1, 10 μM compound
[2] = Pharmacokinetic analysis after oral dosing in mice; assay type: in vivo, BALB/c mice
Experimental: Six to eight-week-old male BALB/c (BALB/cAnNCrlBltw) mice (22-30 g) were purchased from BioLASCO Taiwan Co., Ilan, Taiwan. In vivo PK analysis of ITRI-148 was performed with 10 mg/kg for oral (PO, n = 3) dosing route. Blood samples from the mice were collected using Microvette® CB 300 EDTA blood collection tubes by a lancet at 0.167 h (IV only), 0.5, 1, 2, 4, 7 and 24 h time points. The plasma was then subjected to LC-MS analysis to quantitate the drug concentration using calibration curves that were established with drug standards prepared in mice plasma.

[3] = male, BALB/c, mouse, plasma, po, 10 mg/kg

O=C1CCC(N2C(=O)c3cccc(NCC(=O)N4CCC(N5CCC(C#Cc6ccc(C7CCN(C8=Nn9c(nnc9C(F)(F)F)CC8)CC7)cc6)CC5)CC4)c3C2=O)C(=O)N1 (stereo not shown) [ITRI-148]
Remaining of intact drug (%) ([1]; dog plasma): 79.4 ± 0.6%
half-life at 1 μM ([1]; dog plasma): > 240 min
Remaining of intact drug (%) ([1]; human plasma): 86.9 ± 5.2%
half-life at 1 μM ([1]; human plasma): > 240 min
Remaining of intact drug (%) ([1]; rat plasma): 62.1 ± 5.8%
half-life at 1 μM ([1]; rat plasma): > 240 min
DC50 (AR; CWR22Rv1, 48 hours, read-out: DC50 AR): 1230 ± 1860 nM
Dmax AR (AR; CWR22Rv1, maximal degradation at 10 μM): 65.02 ± 19.91%
DC50 (AR; VCaP cells, read-out: half-maximal degradation concentration (DC50) for AR): ~50 nM
DC50 (AR; VCaP, 48 hours, read-out: DC50 AR): 50 ± 30 nM
Dmax AR (AR; VCaP, maximal degradation at 10 μM): 80.49 ± 5.61% and 80%
viability at 10 µM (CWR22Rv1 cell): 1.71%
AUC/Dose ([2]; PO, 10 mg/kg, 0-24 h per dosing): 990.1 h⋅kg⋅ng/mL/mg
BA ([2]; PO, 10 mg/kg, bioavailability): 27.1 ± 0.5%
PK (PO, 10 mg/kg) BA ([2]; PO, bioavailability): 27.1%
AUC [2, 3]: 9900 ng·h/mL
Cmax [2, 3]: 733 ± 45 ng/mL
Tmax [2, 3]: 4 h
AUC(0-t) ([2]; male, BALB/c, mouse, plasma, PO, 10 mg/kg, between 0 and 24 h): 9900 ng·h/mL
